Laboratory results taken from PubChem BioAssay AID1963977 (Molecular Pharmacology Branch, DTP, NCI, 2024).
Where “and” joins values, the source holds several entries; their conditions need not be identical. Equal values may be shown once.

Tested on: 624824-186-R-J3-PDC multicell spheroids, viability
Assay: Anticancer human tumor 624824-186-R-J3-PDC patient-derived colon adenocarcinoma cell line growth inhibition [PI3K]
Conditions: for viability, T/C: stronger effect = lower value; active = viability on the fitted dose curve at most 10% of control; inactive = the rest
Method in brief: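 Stroma-containing spheroids: tumor line, pooled-donor HUVEC, hMSC. Treatments: targeted agents with PI3K inhibitors. Dosing: clinically relevant, half-log spacing, 10 microM ceiling without known Cmax. Read-out: cell viability.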

[1] = curve of first compound, second compound 0.0316 µM
[2] = curve of first compound, second compound 0.1 µM
[3] = curve of first compound, second compound 0.316 µM
[4] = curve of first compound, second compound 1 µM
[5] = curve of first compound, second compound 3.16 µM
[6] = curve of first compound, second compound 10 µM
[7] = second compound 0.0316 µM, first compound 0.0316 µM
[8] = second compound 0.0316 µM, first compound 0.1 µM
[9] = second compound 0.0316 µM, first compound 0.316 µM
[10] = second compound 0.0316 µM, first compound 1 µM
[11] = second compound 0.0316 µM, first compound 3.16 µM
[12] = second compound 0.0316 µM, first compound 10 µM
[13] = second compound 0.1 µM, first compound 0.0316 µM
[14] = second compound 0.1 µM, first compound 0.1 µM
[15] = second compound 0.1 µM, first compound 0.316 µM
[16] = second compound 0.1 µM, first compound 1 µM
[17] = second compound 0.1 µM, first compound 3.16 µM
[18] = second compound 0.1 µM, first compound 10 µM
[19] = second compound 0.316 µM, first compound 0.0316 µM
[20] = second compound 0.316 µM, first compound 0.1 µM
[21] = second compound 0.316 µM, first compound 0.316 µM
[22] = second compound 0.316 µM, first compound 1 µM
[23] = second compound 0.316 µM, first compound 3.16 µM
[24] = second compound 0.316 µM, first compound 10 µM
[25] = second compound 1 µM, first compound 0.0316 µM
[26] = second compound 1 µM, first compound 0.1 µM
[27] = second compound 1 µM, first compound 0.316 µM
[28] = second compound 1 µM, first compound 1 µM
[29] = second compound 1 µM, first compound 3.16 µM
[30] = second compound 1 µM, first compound 10 µM
[31] = second compound 3.16 µM, first compound 0.0316 µM
[32] = second compound 3.16 µM, first compound 0.1 µM
[33] = second compound 3.16 µM, first compound 0.316 µM
[34] = second compound 3.16 µM, first compound 1 µM
[35] = second compound 3.16 µM, first compound 3.16 µM
[36] = second compound 3.16 µM, first compound 10 µM
[37] = second compound 10 µM, first compound 0.0316 µM
[38] = second compound 10 µM, first compound 0.1 µM
[39] = second compound 10 µM, first compound 0.316 µM
[40] = second compound 10 µM, first compound 1 µM
[41] = second compound 10 µM, first compound 3.16 µM
[42] = second compound 10 µM, first compound 10 µM
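Also: spheroids exposed to agents for seven days before luminescence read.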
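For viability, T/C in this document: luminescent signal used as a stand-in for spheroid viability; percent viability relative to DMSO vehicle control wells taken as 100%.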

C=CC(=O)N1CCN(c2nc(=O)n(-c3c(C)ccnc3C(C)C)c3nc(-c4c(O)cccc4F)c(F)cc23)C(C)C1 (stereo not drawn) + Cc1nc(NC(=O)N2CCCC2C(N)=O)sc1-c1ccnc(C(C)(C)C(F)(F)F)c1
inactive: viability, T/C [7] 103% | viability, T/C [8] 108% | viability, T/C [9] 106% | viability, T/C [10] 94% | viability, T/C [11] 107% | viability, T/C [12] 113% | viability, T/C [13] 112% | viability, T/C [14] 101% | viability, T/C [15] 95.5% | viability, T/C [16] 110% | viability, T/C [17] 113% | viability, T/C [18] 105% | viability, T/C [19] 109% | viability, T/C [20] 109% | viability, T/C [21] 116% | viability, T/C [22] 106% | viability, T/C [23] 103% | viability, T/C [24] 103% | viability, T/C [25] 103% | viability, T/C [26] 108% | viability, T/C [27] 104% | viability, T/C [28] 116% | viability, T/C [29] 105% | viability, T/C [30] 101% | viability, T/C [31] 83.6% | viability, T/C [32] 92.8% | viability, T/C [33] 90.9% | viability, T/C [34] 78.7% | viability, T/C [35] 95.6% | viability, T/C [36] 78.5% | viability, T/C [37] 68.4% | viability, T/C [38] 69% | viability, T/C [39] 71.2% | viability, T/C [40] 76.1% | viability, T/C [41] 69.8% | viability, T/C [42] 65.3%
> 10 µM: IC50 [1] | IC50 [2] | IC50 [3] | IC50 [4] | IC50 [5] | IC50 [6]

C=CC(=O)N1CCN(c2nc(=O)n(-c3c(C)ccnc3C(C)C)c3nc(-c4c(O)cccc4F)c(F)cc23)C(C)C1 (stereo not drawn)
> 10 µM: IC50 (curve of compound)
inactive: viability, T/C (compound 0.0316 µM) 103% [middle of 4 runs] | viability, T/C (compound 0.1 µM) 94.8% [middle of 4 runs] | viability, T/C (compound 0.316 µM) 103% [middle of 4 runs] | viability, T/C (compound 1 µM) 94.3% [middle of 4 runs] | viability, T/C (compound 3.16 µM) 104% [middle of 4 runs] | viability, T/C (compound 10 µM) 106% and 108% (3×)

CNC(=O)c1ccc(N2C(=S)N(c3ccc(C#N)c(C(F)(F)F)c3)C(=O)C2(C)C)cc1F + COc1c(OCCCN2CCOCC2)ccc2c3n(c(=NC(=O)c4cnc(N)nc4)nc12)CCN3
inactive: viability, T/C (second compound 0.00316 µM, first compound 0.0316 µM) 116% | viability, T/C (second compound 0.00316 µM, first compound 0.1 µM) 92.3% | viability, T/C (second compound 0.00316 µM, first compound 0.316 µM) 114% | viability, T/C (second compound 0.00316 µM, first compound 1 µM) 103% | viability, T/C (second compound 0.00316 µM, first compound 3.16 µM) 105% | viability, T/C (second compound 0.00316 µM, first compound 10 µM) 107% | viability, T/C (second compound 0.01 µM, first compound 0.0316 µM) 102% | viability, T/C (second compound 0.01 µM, first compound 0.1 µM) 94.5% | viability, T/C (second compound 0.01 µM, first compound 0.316 µM) 101% | viability, T/C (second compound 0.01 µM, first compound 1 µM) 94% | viability, T/C (second compound 0.01 µM, first compound 3.16 µM) 104% | viability, T/C (second compound 0.01 µM, first compound 10 µM) 98% | viability, T/C [7] 91.1% | viability, T/C [8] 102% | viability, T/C [9] 91.2% | viability, T/C [10] 93.2% | viability, T/C [11] 88.9% | viability, T/C [12] 88.8% | viability, T/C [13] 78% | viability, T/C [14] 74.5% | viability, T/C [15] 89.4% | viability, T/C [16] 71.8% | viability, T/C [17] 73% | viability, T/C [18] 72.5% | viability, T/C [19] 49.2% | viability, T/C [20] 50.8% | viability, T/C [21] 47.5% | viability, T/C [22] 48.5% | viability, T/C [23] 47.6% | viability, T/C [24] 34.1% | viability, T/C [25] 26.7% | viability, T/C [26] 31% | viability, T/C [27] 26.7% | viability, T/C [28] 27.5% | viability, T/C [29] 26.2% | viability, T/C [30] 23.9%
< 0.0316 µM: IC50 [3] | IC50 [4]
> 10 µM: IC50 (curve of first compound, second compound 0.00316 µM) | IC50 (curve of first compound, second compound 0.01 µM) | IC50 [1] | IC50 [2]

CCCS(=O)(=O)Nc1ccc(F)c(C(=O)c2c[nH]c3ncc(-c4ccc(Cl)cc4)cc23)c1F + Cc1nc(NC(=O)N2CCCC2C(N)=O)sc1-c1ccnc(C(C)(C)C(F)(F)F)c1
1.99 µM: IC50 [4]
0.0866 µM: IC50 [6]
5.14 µM: IC50 [1]
inactive: viability, T/C [7] 108% | viability, T/C [8] 92.1% | viability, T/C [9] 103% | viability, T/C [10] 92.6% | viability, T/C [11] 80.5% | viability, T/C [12] 10.2% | viability, T/C [13] 95.6% | viability, T/C [14] 88.1% | viability, T/C [15] 94.6% | viability, T/C [16] 82.1% | viability, T/C [17] 69.7% | viability, T/C [18] 12.8% | viability, T/C [19] 115% | viability, T/C [20] 87.9% | viability, T/C [21] 80.7% | viability, T/C [22] 73.7% | viability, T/C [23] 68.4% | viability, T/C [24] 14.6% | viability, T/C [25] 84.6% | viability, T/C [26] 89.8% | viability, T/C [27] 62% | viability, T/C [28] 65.2% | viability, T/C [29] 43.7% | viability, T/C [30] 13.7% | viability, T/C [31] 77.6% | viability, T/C [32] 64.8% | viability, T/C [33] 52% | viability, T/C [34] 44.6% | viability, T/C [35] 34.7% | viability, T/C [36] 9.51% | viability, T/C [37] 57% | viability, T/C [38] 50.5% | viability, T/C [39] 36.1% | viability, T/C [40] 31.8% | viability, T/C [41] 26.6% | viability, T/C [42] 6.93%
3.75 µM: IC50 [3]
4.63 µM: IC50 [2]
0.525 µM: IC50 [5]
